# Experimental data: patent US20220289691A1, “5-AMINO-SUBSTITUTED PYRAZOLES AND TRIAZOLES AS PEST CONTROL AGENTS” (Bayer Aktiengesellschaft, priority 2019, published 2022)
# How the values were obtained:
# [1] = tested on: Spodoptera frugiperda; test: Spodoptera frugiperda spray test; format: in vivo; conditions: foliar, 168 h, 100 g/ha, maize leaf discs, after 7 days, read-out: efficacy (caterpillars killed)
# Method: Spodoptera frugiperda—Spray Test Solvent: 78.0 parts by weight of acetone • • 1.5 parts by weight of dimethylformamide Emulsifier: alkylaryl polyglycol ether
# (§1) To produce a suitable active compound formulation, 1 part by weight of active compound is dissolved using the stated parts by weight of solvent and made up with water containing an emulsifier concentration of 1000 ppm until the desired concentration is attained. To produce further test concentrations, the formulation is diluted with emulsifier-containing water.
# Leaf discs of maize (Zea mays) are sprayed with an active compound formulation of the desired concentration and, after drying, populated with caterpillars of the fall armyworm (Spodoptera frugiperda).
# After 7 days, the efficacy in % is determined. 100% means that all the caterpillars have been killed; 0% means that no caterpillar has been killed.
# [2] = tested on: Diabrotica balteata; test: Diabrotica balteata spray test; format: in vivo; conditions: 168 h, beetle larvae on wheat, after 7 days, read-out: efficacy (wheat plant growth); for pest or weed control at 125 g/ha: 125 g/ha (=40 μg/cavity); for pest or weed control at 500 g/ha: 500 g/ha (=160 μg/cavity)
# Method: Diabrotica balteata—Spray Test Solvent: 78 parts by weight of acetone • • 1.5 parts by weight of dimethylformamide Emulsifier: alkylaryl polyglycol ether
# as §1
# Pre-swollen wheat grains (Triticum aestivum) are incubated in a multiwell plate filled with agar and a little water for one day (5 seed grains per cavity). The germinated wheat grains are sprayed with an active compound formulation of the desired concentration. Subsequently, each cavity is infected with 10-20 beetle larvae of Diabrotica balteata.
# After 7 days, the efficacy in % is determined. 100% means that all wheat plants have grown as in the untreated, uninfected control; 0% means that no wheat plant has grown.
SMILES,pest or weed control at 100 g/ha [1],pest or weed control at 125 g/ha [2],pest or weed control at 500 g/ha [2]
CC(=O)Nc1nc(-c2ccc(C=NNC(=S)Nc3c(C)cccc3C)cc2)nn1-c1ccc(OC(F)(F)F)cc1 [Compound I-011],100%,–,–
CC(C)c1ccccc1NC(=S)NN=Cc1ccc(-c2nc(N3CCOCC3)n(-c3ccc(OC(F)(F)F)cc3)n2)cc1 [Compound I-019],100%,100%,100%
CC(C)c1ccccc1NC(=S)NN=Cc1ccc(-c2nc(N)n(-c3ccc(OC(F)(F)F)cc3)n2)cc1 [Compound I-021],100%,100%,100%
CCS(=O)(=O)Nc1nc(-c2ccc(C=NNC(=S)Nc3ccccc3C(C)C)cc2)nn1-c1ccc(OC(F)(F)F)cc1 [Compound I-022],100%,100%,100%
CC(C)c1ccccc1NC(=S)NN=Cc1ccc(-c2nc(NS(=O)(=O)C3CC3)n(-c3ccc(OC(F)(F)F)cc3)n2)cc1 [Compound I-023],100%,100%,100%
CNc1nc(-c2ccc(C=NN=C3SCC(=O)N3c3ccccc3C(C)C)cc2)nn1-c1ccc(OC(F)(F)F)cc1 [Compound I-024],100%,100%,100%
CC(C)c1ccccc1N1C(=O)CSC1=NC(=O)Nc1ccc(-c2nc(N)n(-c3ccc(OC(F)(F)F)cc3)n2)cc1 [Compound I-025],100%,100%,100%
CNc1nc(-c2ccc(NC(=O)N=C3SCC(=O)N3c3ccccc3C(C)C)cc2)nn1-c1ccc(OC(F)(F)F)cc1 [Compound I-026],–,–,80%
CC(C)c1ccccc1NC(=S)NN=Cc1ccc(-c2nc(NS(=O)(=O)C(F)F)n(-c3ccc(OC(F)(F)F)cc3)n2)cc1 [Compound I-028],83%,–,–
CC(C)c1ccccc1N1C(=O)CSC1=NC(=O)Nc1ccc(-c2nc(-n3ccnc3)n(-c3ccc(OC(F)(F)F)cc3)n2)cc1 [Compound I-031],100%,–,–
CC(C)c1ccccc1N1C(=O)CSC1=NN=Cc1ccc(-c2nc(NC3COC3)n(-c3ccc(OC(F)(F)F)cc3)n2)cc1 [Compound I-053],100%,–,–
CCOCCNc1nc(-c2ccc(C=NN=C3SCC(=O)N3c3ccccc3C(C)C)cc2)nn1-c1ccc(OC(F)(F)F)cc1 [Compound I-059],100%,–,–
CC(C)c1ccccc1N1C(=O)CSC1=NN=Cc1ccc(-c2nc(NC3CCOC3)n(-c3ccc(OC(F)(F)F)cc3)n2)cc1 (centres unmarked) [Compound I-069],100%,–,–
CCOC(CNc1nc(-c2ccc(C=NNC(=S)Nc3ccccc3C(C)C)cc2)nn1-c1ccc(OC(F)(F)F)cc1)OCC [Compound I-074],100%,–,–
COCCNc1nc(-c2ccc(C=NN=C3SCC(=O)N3c3ccccc3C(C)C)cc2)nn1-c1ccc(OC(F)(F)F)cc1 [Compound I-076],100%,–,–
COCCCNc1nc(-c2ccc(C=NN=C3SCC(=O)N3c3ccccc3C(C)C)cc2)nn1-c1ccc(OC(F)(F)F)cc1 [Compound I-077],100%,–,–
CC(C)c1ccccc1NC(=S)NN=Cc1ccc(-c2nc(NCCO)n(-c3ccc(OC(F)(F)F)cc3)n2)cc1 [Compound I-078],100%,–,–
COCCCNc1nc(-c2ccc(NC(=O)N=C3SCC(=O)N3c3ccccc3C(C)C)cc2)nn1-c1ccc(OC(F)(F)F)cc1 [Compound I-081],100%,–,–
CC(C)c1ccccc1N1C(=O)CSC1=NN=Cc1ccc(-c2nc(NCCO)n(-c3ccc(OC(F)(F)F)cc3)n2)cc1 [Compound I-089],100%,–,–

SMILES,pest or weed control at 100 g/ha [1],pest or weed control at 125 g/ha [2],pest or weed control at 500 g/ha [2]
CC(C)c1ccccc1N1C(=O)CSC1=NN=Cc1ccc(-c2nc(NCCC#N)n(-c3ccc(OC(F)(F)F)cc3)n2)cc1 [Compound I-092],100%,–,–
CC(C)c1ccccc1N1C(=O)CSC1=NN=Cc1ccc(-c2nc(NC3CSC3)n(-c3ccc(OC(F)(F)C(F)(F)F)cc3)n2)cc1 [Compound I-101],83%,–,–
CNc1nc(-c2ccc(C=NN=C3SCC(=O)N3c3ccccc3C(C)C)c(Cl)c2)nn1-c1ccc(OC(F)(F)F)cc1 [Compound I-115],100%,–,–
CNc1nc(-c2ccc(C=NN=C3SCC(=O)N3c3ccccc3C(C)C)cc2C)nn1-c1ccc(OC(F)(F)F)cc1 [Compound I-121],100%,–,–
COCCNc1nc(-c2ccc(NC(=O)N=C3SCC(=O)N3c3ccccc3C(C)C)cc2)nn1-c1ccc(OC(F)(F)C(F)(F)F)cc1 [Compound I-128],100%,–,–
COCCNc1nc(-c2ccc(C=NN=C3SCC(=O)N3c3ccccc3C(C)C)cc2)nn1-c1ccc(OC(F)(F)C(F)(F)F)cc1 [Compound I-129],100%,–,–
COCCNc1nc(-c2ccc(C=NN=C3SCC(=O)N3c3cc(OC)ccc3C(C)C)cc2)nn1-c1ccc(OC(F)(F)C(F)(F)F)cc1 [Compound I-130],100%,–,–
COCCNc1nc(-c2ccc(NC(=O)N=C3SCC(=O)N3c3cc(OC)ccc3C(C)C)cc2)nn1-c1ccc(OC(F)(F)C(F)(F)F)cc1 [Compound I-131],100%,–,–
COCCNc1nc(-c2ccc(C=NNC(=S)Nc3ccccc3C(C)C)cc2)nn1-c1ccc(OC(F)(F)C(F)(F)F)cc1 [Compound I-132],100%,–,–
COCCNc1nc(-c2ccc(C=NNC(=S)Nc3cc(OC)ccc3C(C)C)cc2)nn1-c1ccc(OC(F)(F)C(F)(F)F)cc1 [Compound I-133],100%,–,–
COc1ccc(C(C)C)c(NC(=S)NN=Cc2ccc(-c3nc(NCCO)n(-c4ccc(OC(F)(F)C(F)(F)F)cc4)n3)cc2)c1 [Compound I-134],100%,–,–
CC(C)c1ccccc1NC(=S)NN=Cc1ccc(-c2nc(NCCO)n(-c3ccc(OC(F)(F)C(F)(F)F)cc3)n2)cc1 [Compound I-135],100%,–,–
CC(C)c1ccccc1NC(=S)NN=Cc1ccc(-c2nc(NCCC#N)n(-c3ccc(OC(F)(F)C(F)(F)F)cc3)n2)cc1 [Compound I-136],100%,–,–
COc1ccc(C(C)C)c(NC(=S)NN=Cc2ccc(-c3nc(NCCC#N)n(-c4ccc(OC(F)(F)C(F)(F)F)cc4)n3)cc2)c1 [Compound I-137],100%,–,–
CC(C)c1ccccc1N1C(=O)CSC1=NN=Cc1ccc(-c2nc(NCCO)n(-c3ccc(OC(F)(F)C(F)(F)F)cc3)n2)cc1 [Compound I-138],100%,–,–
COc1ccc(C(C)C)c(N2C(=O)CSC2=NN=Cc2ccc(-c3nc(NCCO)n(-c4ccc(OC(F)(F)C(F)(F)F)cc4)n3)cc2)c1 [Compound I-139],100%,–,–
COc1ccc(C(C)C)c(N2C(=O)CSC2=NC(=O)Nc2ccc(-c3nc(NCCC#N)n(-c4ccc(OC(F)(F)C(F)(F)F)cc4)n3)cc2)c1 [Compound I-140],100%,–,–
CC(C)c1ccccc1N1C(=O)CSC1=NN=Cc1ccc(-c2nc(NCCC#N)n(-c3ccc(OC(F)(F)C(F)(F)F)cc3)n2)cc1 [Compound I-141],100%,–,–
COc1ccc(C(C)C)c(N2C(=O)CSC2=NN=Cc2ccc(-c3nc(NCCC#N)n(-c4ccc(OC(F)(F)C(F)(F)F)cc4)n3)cc2)c1 [Compound I-142],100%,–,–
